This passage reports GI50 and TGI results from PubChem BioAssay (NCI).

Among the test systems are A549 NSCLC; ACHN renal; BT-549 breast; COLO 205 colon; DU-145 prostate; M14 melanoma; MDA-MB-231 breast; OVCAR-8 ovarian; SK-OV-3 ovarian; UACC-257 melanoma.
Assay in all cases: NCI tumour cell line growth inhibition, 48 h

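Five compound concentrations were applied to cells in 96-well plates for 48 hours; endpoints were derived by simple linear interpolation of the resulting dose-response curve. Here, GI50 denotes the concentration required for 50% inhibition of growth. TGI is the concentration that stops growth completely.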

As for `COc1ccc(-c2cc(-c3ccc(Nc4nc(Nc5ccc(Cl)cc5)nc(Nc5ccc(Cl)cc5)n4)cc3)nc(N)c2C#N)cc1`, the GI50 in the assay on A549 NSCLC is 3.64 µM; in the assay on ACHN renal, 0.803 µM; in the assay on BT-549 breast, 3.06 µM; in the assay with COLO 205 colon, 0.865 µM; with DU-145 prostate, 3.91 µM; with M14 melanoma it was 1.97 µM. Further, the GI50 with MDA-MB-231 breast is 1.54 µM; with OVCAR-8 ovarian, 2.12 µM; in the assay on SK-OV-3 ovarian, 8.71 µM; with UACC-257 melanoma, 1.79 µM. The TGI in the assay on A549 NSCLC was over 100 µM; with ACHN renal, 2.18 µM; in the assay on BT-549 breast, 9.11 µM; with COLO 205 colon it was 2.75 µM; in the assay on DU-145 prostate, 17 µM; in the assay with M14 melanoma, 4.36 µM. The TGI in the assay on MDA-MB-231 breast was 3.23 µM; in the assay with OVCAR-8 ovarian, over 51.2 µM; with SK-OV-3 ovarian, over 28.1 µM; in the assay with UACC-257 melanoma it was 3.63 µM.
On to `COC(=O)c1cnc(=O)n(C2CC(O)C(CO)O2)c1` (centres undefined), for which the GI50 in the assay on A549 NSCLC, with ACHN renal, in the assay with BT-549 breast, in the assay with COLO 205 colon, with DU-145 prostate and with M14 melanoma was over 100 µM throughout. Besides, the GI50 in the assay with MDA-MB-231 breast, with OVCAR-8 ovarian, in the assay on SK-OV-3 ovarian and in the assay on UACC-257 melanoma was over 100 µM in each case. Besides, the TGI in the assay on A549 NSCLC, in the assay with ACHN renal, with BT-549 breast, in the assay on COLO 205 colon, in the assay on DU-145 prostate and in the assay with M14 melanoma was over 100 µM throughout. In addition, the TGI with MDA-MB-231 breast, in the assay with OVCAR-8 ovarian, in the assay on SK-OV-3 ovarian and with UACC-257 melanoma was over 100 µM throughout.
As for `Nc1ccn(C=C=CCO)c(=O)n1`, the GI50 in the assay with A549 NSCLC, with ACHN renal, in the assay on BT-549 breast, in the assay with COLO 205 colon, in the assay with DU-145 prostate and in the assay with M14 melanoma was over 1000 µM each time. Also, the GI50 in the assay on MDA-MB-231 breast, with SK-OV-3 ovarian and in the assay on UACC-257 melanoma was over 1000 µM throughout. The TGI with A549 NSCLC, with ACHN renal, in the assay with BT-549 breast, in the assay with COLO 205 colon, in the assay on DU-145 prostate and with M14 melanoma was over 1000 µM each time. Besides, the TGI in the assay on MDA-MB-231 breast, in the assay on OVCAR-8 ovarian, in the assay with SK-OV-3 ovarian and in the assay on UACC-257 melanoma was over 1000 µM throughout.
For the compound `O=C(c1cccs1)c1c(C(F)(F)F)n([O-])c2ccc(C(F)(F)F)cc2[n+]1=O`, the GI50 was 0.134 µM in the assay on A549 NSCLC; 0.183 µM in the assay with ACHN renal; 0.178 µM in the assay with BT-549 breast; 0.328 µM in the assay with COLO 205 colon; 0.234 µM in the assay with DU-145 prostate; 0.791 µM in the assay with M14 melanoma. The GI50 in the assay with MDA-MB-231 breast is 0.189 µM; in the assay with OVCAR-8 ovarian, 0.116 µM; with SK-OV-3 ovarian it was 1.24 µM; with UACC-257 melanoma, 1.59 µM. Also, the TGI in the assay on A549 NSCLC came to 0.31 µM; with ACHN renal, 0.326 µM; in the assay with BT-549 breast, 0.34 µM; in the assay on COLO 205 colon, 0.909 µM; with DU-145 prostate, 0.576 µM; with M14 melanoma, 1.87 µM. Further, the TGI came to 0.357 µM in the assay with MDA-MB-231 breast, 0.479 µM with OVCAR-8 ovarian, 2.56 µM in the assay on SK-OV-3 ovarian and 3.15 µM with UACC-257 melanoma.
Regarding `Cc1ccc(S(=O)(=O)NC(CCC(=O)Nc2ccc(Cl)cc2)C(=O)Nc2ccc(Cl)cc2)cc1` (centres undefined), the GI50 with A549 NSCLC is 0.178 µM; with ACHN renal, 0.248 µM; with BT-549 breast, 0.967 µM; in the assay on COLO 205 colon, 0.531 µM; in the assay on DU-145 prostate it was 1.2 µM; in the assay on M14 melanoma, 0.0541 µM. The GI50 in the assay with MDA-MB-231 breast is 0.263 µM; in the assay on OVCAR-8 ovarian, 0.724 µM; in the assay with SK-OV-3 ovarian, 0.869 µM; in the assay on UACC-257 melanoma, 0.702 µM. For the same compound, the TGI is 6.72 µM in the assay on A549 NSCLC; 6.57 µM in the assay with ACHN renal; 6.71 µM in the assay with BT-549 breast; 2.15 µM with COLO 205 colon; 9.89 µM in the assay with DU-145 prostate; 6.58 µM with M14 melanoma. Moreover, the TGI in the assay on MDA-MB-231 breast was 4.23 µM; with OVCAR-8 ovarian it was 8.62 µM; with SK-OV-3 ovarian, 4.36 µM; in the assay on UACC-257 melanoma it was 7.5 µM.
For `O=C1c2ccccc2-c2c1c1ccccc1c(=O)n2CCO`, the TGI in the assay with A549 NSCLC was over 100 µM; in the assay with ACHN renal, 10.4 µM; in the assay on BT-549 breast, over 100 µM; in the assay on COLO 205 colon, over 100 µM; in the assay with DU-145 prostate it was over 100 µM; with M14 melanoma, over 100 µM. Also, the TGI in the assay with MDA-MB-231 breast, in the assay with OVCAR-8 ovarian, in the assay with SK-OV-3 ovarian and in the assay with UACC-257 melanoma was over 100 µM each time.
Regarding `COc1cc[nH]c1/C=C1\C(=O)Nc2ccc(F)c(C#C[C@@H](O)[C@@H](N)[C@@H](C)O)c21`, the GI50 in the assay on A549 NSCLC is 0.681 µM; in the assay with ACHN renal, 0.323 µM; with BT-549 breast, 0.642 µM; in the assay on COLO 205 colon it was 0.303 µM; in the assay with DU-145 prostate, 0.529 µM; in the assay with M14 melanoma, 0.413 µM. Also, the GI50 with MDA-MB-231 breast is 0.485 µM; in the assay with OVCAR-8 ovarian, 0.843 µM; with SK-OV-3 ovarian, 0.744 µM; in the assay with UACC-257 melanoma, 0.628 µM. Further, the TGI was determined as 3.13 µM with A549 NSCLC; 2.94 µM in the assay with ACHN renal; 1.65 µM in the assay on BT-549 breast; 0.743 µM in the assay on COLO 205 colon; 3.5 µM in the assay on DU-145 prostate; 1.24 µM in the assay on M14 melanoma. The TGI in the assay with MDA-MB-231 breast is 2.37 µM; in the assay with OVCAR-8 ovarian, 5.15 µM; in the assay with SK-OV-3 ovarian it was 9.65 µM; with UACC-257 melanoma, 2.17 µM.
On to `COc1cc(C(=O)O)c([N+](=O)[O-])c(OC)c1OC`, for which the TGI in the assay with A549 NSCLC, in the assay with ACHN renal, in the assay with BT-549 breast, in the assay on COLO 205 colon, with DU-145 prostate and in the assay with M14 melanoma was over 100 µM throughout. Besides, the TGI in the assay on MDA-MB-231 breast, in the assay on OVCAR-8 ovarian, in the assay with SK-OV-3 ovarian and with UACC-257 melanoma was over 100 µM throughout.
For the compound `O=[N+]([O-])c1ccc(N/N=C\c2cc(Cl)ccc2O)nc1`, the GI50 in the assay on A549 NSCLC is 2.79 µM; in the assay on ACHN renal it was 0.696 µM; in the assay with BT-549 breast, 3.23 µM; with COLO 205 colon, 5.06 µM; in the assay on DU-145 prostate, 1.22 µM; with M14 melanoma, 1.19 µM. For the same compound, the GI50 in the assay on MDA-MB-231 breast is 3.88 µM; in the assay with OVCAR-8 ovarian, 0.97 µM; in the assay on SK-OV-3 ovarian, 4.25 µM; in the assay with UACC-257 melanoma it was 1.82 µM. The TGI in the assay with A549 NSCLC was 16.1 µM; in the assay with ACHN renal, 39.4 µM; in the assay with BT-549 breast it was 14.9 µM; in the assay with COLO 205 colon, over 100 µM; with DU-145 prostate, 13.1 µM; in the assay on M14 melanoma, 7.27 µM. Besides, the TGI in the assay on MDA-MB-231 breast is 33.1 µM; in the assay on OVCAR-8 ovarian it was 14.1 µM; in the assay on SK-OV-3 ovarian, 37.3 µM; in the assay with UACC-257 melanoma, 7.38 µM.
With `CCCCCCCCCCCCc1ccc(C(=O)/C=C/C(=O)O)cc1`, the GI50 is 13.8 µM in the assay with A549 NSCLC; 1.73 µM in the assay on ACHN renal; 1.91 µM in the assay on BT-549 breast; 1.83 µM in the assay on COLO 205 colon; 8.15 µM in the assay on DU-145 prostate; 1.79 µM in the assay with M14 melanoma. For the same compound, the GI50 in the assay on MDA-MB-231 breast is 1.85 µM; in the assay on OVCAR-8 ovarian, 3.44 µM; with SK-OV-3 ovarian it was 16.2 µM; in the assay on UACC-257 melanoma, 3.79 µM. Further, the TGI was found to be 30.7 µM with A549 NSCLC; 3.15 µM in the assay with ACHN renal; 5.33 µM with BT-549 breast; 3.84 µM with COLO 205 colon; 20.9 µM in the assay with DU-145 prostate; 4.17 µM with M14 melanoma. For the same compound, the TGI is 4.5 µM with MDA-MB-231 breast, 12.9 µM with OVCAR-8 ovarian, 30.4 µM in the assay with SK-OV-3 ovarian and 15.2 µM in the assay on UACC-257 melanoma.
For the compound `O=C1C=C[C@]2(C[C@@H](c3cccc(C(F)(F)F)c3)O[C@@H](c3cccc(C(F)(F)F)c3)O2)O1`, the GI50 with A549 NSCLC is 5.57 µM; in the assay with ACHN renal, 1.55 µM; with BT-549 breast, 1.92 µM; in the assay on COLO 205 colon, 1.88 µM; in the assay on DU-145 prostate, 5.72 µM; in the assay on M14 melanoma it was 4.11 µM. The GI50 in the assay on MDA-MB-231 breast is 2.15 µM; in the assay with OVCAR-8 ovarian, 3.03 µM; with SK-OV-3 ovarian it was 14.4 µM; in the assay with UACC-257 melanoma it was 2.29 µM. Moreover, the TGI in the assay on A549 NSCLC worked out at 20.4 µM; in the assay with ACHN renal, 3.1 µM; in the assay on BT-549 breast, 4.82 µM; in the assay on COLO 205 colon it was 5.51 µM; with DU-145 prostate, 18.4 µM; in the assay with M14 melanoma it was 23.7 µM. Also, the TGI in the assay on MDA-MB-231 breast was determined as 6.29 µM; with OVCAR-8 ovarian, 13.4 µM; in the assay with SK-OV-3 ovarian, 28.1 µM; in the assay on UACC-257 melanoma, 5.77 µM.
